For eight molecules, TGI results are on record in PubChem BioAssay (NCI).

Structures are written as SMILES.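 Growth conditions: 96-well plates. Treatment: test compound, 48 hours, 5 concentrations. Analysis: linear interpolation between bracketing concentrations; unreached endpoints set to highest concentration. At the TGI there is no net growth.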 Where a SMILES comes first, the peptide text is derived from it. [ ]: non-standard residue; d: D form. The star is where a group is joined. ξ: configuration not given here. NMeF = CN[C@@H](Cc1ccccc1)C(=O)O; NMeV = CN[C@H](C(=O)O)C(C)C; ξNMeV = CNC(C(=O)O)C(C)C; Boc = CC(C)(C)OC(=O)*; OBn = c1ccc(CO*)cc1

Common to all, as to test: NCI-60 cell line screen, 48 h
Experiment [1] has as its system ACHN renal.
The test system of experiment [2] is CAKI-1 renal.
Experiment [3] has as its system COLO 205 colon.
For experiment [4], the system named is HCT-15 colon.
The test system of experiment [5] is HOP-62 NSCLC.
In experiment [6] the test system is HOP-92 NSCLC.
Experiment [7] has as its system IGROV1 ovarian.
For experiment [8], the system named is KM20L2 colon.
Experiment [9] relates to LOX IMVI melanoma.
Experiment [10] has as its system MALME-3M melanoma.
Experiment [11] relates to MOLT-4 leukemia.
For experiment [12], the system named is NCI-H23 lung.
For experiment [13], the system named is NCI-H460 lung.
Experiment [14] relates to OVCAR-3 ovarian.
The test system of experiment [15] is OVCAR-5 ovarian.
In experiment [16] the test system is RXF 393 renal.
The subject of experiment [17] is SK-MEL-5 melanoma.

For the molecule `CCO/C(O)=c1/s/c(=C(\C#N)c2nc3ccccc3[nH]2)n(-c2ccccc2)c1=N`, the TGI in [1], in experiment [2], in [3], in experiment [4], in experiment [5] and in [6] was more than 100 µM each time. The TGI in [7], in experiment [8], in experiment [9], in [10], in experiment [11] and in experiment [12] was more than 100 µM each time. In addition, the TGI in [13], in experiment [14], in experiment [15], in experiment [16] and in experiment [17] was more than 100 µM in each case.
As for `CC(=O)Nc1ccc(/C=c2\sc3nnc(-c4cccnc4)n3c2=O)cc1`, the TGI in experiment [1] stood at 26.9 µM; in experiment [2], 35.3 µM; in experiment [3], 29.8 µM; in experiment [4] it was 35.9 µM; in experiment [5], 52.6 µM; in experiment [6], 44.2 µM. Further, the TGI in [7] came out at 32.5 µM; in experiment [8], 38.6 µM; in experiment [9], 30.7 µM; in experiment [10], 37.3 µM; in experiment [11], 64.3 µM; in [12], 31.4 µM. The TGI in [13] worked out at 30.9 µM; in [14] it was 34 µM; in experiment [15], 67.1 µM; in experiment [16], 37.2 µM; in [17], 37.8 µM.
On to `CC(C)C(C(=O)N(C)[C@H](C(=O)N1CCC[C@H]1C(=O)N(C)[C@@H](Cc1ccccc1)C(=O)OCc1ccccc1)C(C)C)N(C)C(=O)[C@@H](NC(=O)OC(C)(C)C)C(C)C` (stereo partly specified) (Boc-V[ξNMeV][NMeV]P[NMeF]-OBn), for which the TGI in [1] is more than 100 µM; in [2], more than 31.6 µM; in experiment [3], 35.2 µM; in experiment [4], more than 31.6 µM; in experiment [5] it was more than 31.6 µM; in [6], 30.4 µM. The TGI in experiment [7] was more than 31.6 µM; in experiment [8] it was more than 31.6 µM; in [9], more than 31.6 µM; in [10], more than 100 µM; in experiment [11] it was 21.3 µM; in [12], more than 100 µM. Besides, the TGI in [13] is more than 31.6 µM; in [14], more than 100 µM; in experiment [15], more than 31.6 µM; in [16], more than 31.6 µM; in experiment [17], 15.5 µM.
Consider `CN(C)CCC[N+]1=Nc2cccc3cccc(c23)N1`, for which the TGI in experiment [1], in experiment [2], in [4], in experiment [5], in experiment [6] and in experiment [7] was more than 100 µM throughout. Moreover, the TGI in experiment [8] is more than 100 µM; in experiment [9], more than 100 µM; in [10], more than 100 µM; in [11] it was 62.4 µM; in experiment [12], more than 100 µM; in experiment [13], more than 100 µM. Moreover, the TGI in [14] was more than 100 µM; in [15], more than 100 µM; in [17], 34.2 µM.
With `COC(=O)C(CCC1(C)OCCO1)=[N+]=[N-]`, the TGI in [1], in experiment [3], in experiment [4], in [5], in experiment [7] and in [8] was more than 100 µM in each case. Further, the TGI in [9], in [10], in experiment [11], in experiment [12], in experiment [13] and in experiment [14] was more than 100 µM in each case. For the same molecule, the TGI in experiment [15], in [16] and in experiment [17] was more than 100 µM in each case.
Take `O=C1[C@@H]2C(c3ccccc3[N+](=O)[O-])=NO[C@@H]2C(=O)N1c1ccc(Cc2ccc(N3C(=O)[C@H]4C(c5ccccc5[N+](=O)[O-])=NO[C@H]4C3=O)cc2)cc1`: the TGI in [1], in [2], in [3], in [4], in [5] and in experiment [6] was more than 100 µM in each case. Also, the TGI in experiment [7], in [8], in experiment [9], in experiment [10], in experiment [11] and in experiment [12] was more than 100 µM each time. Moreover, the TGI in experiment [13], in [14], in experiment [15], in experiment [16] and in experiment [17] was more than 100 µM throughout.
In the case of `COc1ccc(C2=Nc3ccccc3N=C(SC)C2)cc1`, the TGI in experiment [1] was more than 100 µM; in experiment [2], more than 100 µM; in [3], more than 100 µM; in experiment [4], more than 100 µM; in experiment [5], more than 100 µM; in experiment [6] it was 61.9 µM. For the same molecule, the TGI in experiment [7] is more than 100 µM; in [8], more than 100 µM; in experiment [9], 34.6 µM; in experiment [10], more than 100 µM; in experiment [11] it was more than 100 µM; in experiment [12], more than 100 µM. Besides, the TGI in [13] was 71.9 µM; in experiment [14], more than 100 µM; in [15], more than 100 µM; in experiment [16], more than 100 µM; in experiment [17], more than 100 µM.
For `CCCCCCCCCCCC[N+]12CC[N+](C)(CC1)CC2`, the TGI is more than 100 µM in experiment [1]; 30.9 µM in experiment [2]; 16.9 µM in experiment [3]; more than 100 µM in experiment [5]; 47.7 µM in [6]; 11.8 µM in experiment [7]. Further, the TGI in [8] was 85.9 µM; in [9], 43 µM; in experiment [10], more than 100 µM; in experiment [11] it was more than 100 µM; in [12], 60.9 µM; in experiment [13], 26.5 µM. For the same molecule, the TGI in experiment [14] was more than 100 µM; in [15], 41 µM; in experiment [16], 3.34 µM; in [17] it was more than 100 µM.
